Experimental data from PMC10178127, “Immunomodulatory Effects of the Pea Defensin Psd1 in the Caco-2/Immune Cells Co-Culture upon Candida albicans Infection” (International Journal of Molecular Sciences, 2023).

Tested on: CD14+ blood monocytes
Test: Multiplex xMAP cytokine production, direct stimulation of monocytes
Assay type: cell-based, human
Conditions: 24 h
Description: Primary peripheral blood mononuclear cells (PBMCs) collected from healthy donors were purchased from American Type Culture Collection (ATCC PCS-800-011). Primary CD14^+ blood monocytes were isolated from PBMCs by adherence according to standard technique. Monocyte-derived mature dendritic cells (moDCs) were obtained from CD14^+ blood monocytes according to the previously reported protocol. Briefly, blood monocytes were incubated in a complete RPMI-1640 medium (Capricorn Scientific, Ebsdorfergrund, Germany), containing 10% fetal bovine serum (FBS, Capricorn Scientific, Ebsdorfergrund, Germany), 1× antibiotic-antimycotic solution (Invitrogen, Waltham, MA, USA), 800 U/mL rhGM-CSF (Sci-Store, Moscow, Russia) and 500 U/mL rhIL-4 (Sci-Store) for 3 days in CellXpert C170i CO2-incubator (Eppendorf, Hamburg, Germany). Fresh complete RPMI-1640 medium with rhGM-CSF and rhIL-4 was added to the culture on day 3. On day 5, fresh complete RPMI-1640 containing 100 U/mL rhTNF-α (Sigma-Aldrich, St. Louis, MO, USA) as well as 800 U/mL rhGM-CSF and 500 U/mL rhIL-4 was added and the culture was incubated for another 4 days until full maturation.
Monocytes and moDCs were seeded into the wells of 48- and 24-well plates in the complete RPMI-1640 medium supplemented with 10% human AB serum (HABS, Capricorn Scientific) without antibiotics 24 h prior to the experiment, and kept in a humidified CO2-incubator (5% CO2, 37 °C). After 24 h, the medium in the wells of the 48-well plate was replaced by fresh complete RPMI-1640 medium with 10% HABS, supplemented with 2 µM of Psd1 for the sample wells or fresh medium alone for the control wells. Medium in the wells of the 24-well plate was replaced by fresh complete RPMI-1640 medium with 10% human serum without antibiotics. Then, Millicell inserts with Caco-2 monolayers with TEER > 400 Ωcm^2 were placed into the wells of the 24-well plate, containing monocytes or moDCs. Wells with Millicell inserts with Caco-2 monolayers without immune cells were used as control wells. Medium in apical chambers of Millicell inserts was replaced by fresh complete RPMI-1640 with 10% human serum medium containing Psd1 at the final concentration of 2 µM or Candida albicans at the concentration of 5 × 10^4 cells/mL or yeast cells together with the pea defensin at the same concentration. Fresh complete RPMI-1640 medium only with 10% human serum and without antibiotics was used in control wells. Plates were kept in CO2-incubator (5% CO2, 37 °C) for another 24 h. Culture supernatants from the wells of the 48-well plate and basolateral chambers of the 24-well plate were collected and stored at −70 °C degrees less than one month prior to the analytes assessment.
The following 48 analytes were measured at a protein level by multiplex xMAP technology using the MILLIPLEX Human Cytokine/Chemokine/Growth Factor Panel A kit (HCYTA-60K-PX48, Merck, Darmstadt, Germany): sCD40L, EGF, Eotaxin-1/CCL11, FGF-2/FGF-basic, Flt-3 ligand, Fractalkine/CX3CL1, G-CSF, GM-CSF, GROα/CXCL1, IFNα2, IFNγ, IL-1α, IL-1β, IL-1RA, IL-2, IL-3, IL-4, IL-5, IL-6, IL-7, IL-8/CXCL8, IL-9, IL-10, IL-12(p40), IL-12(p70), IL-13, IL-15, IL-17A/CTLA8, IL-17E/IL-25, IL-17F, IL-18, IL-22, IL-27, IP-10/CXCL10, MCP-1/CCL2, MCP-3/CCL7, M-CSF, MDC/CCL22, MIG/CXCL9, MIP-1α/CCL3, MIP-1β/CCL4, PDGF-AA, PDGF-AB/BB, RANTES/CCL5, TGFα, TNFα, TNFβ, and VEGF-A. Multiplex-based assay read-out was performed using the MAGPIX system (Merck) with the xPONENT 4.2 software (Merck) in accordance with the manufacturer’s instruction with overnight incubation of the samples with primary antibodies. A final analysis was carried out with the MILLIPLEX Analyst v5.1 software (Merck). Measurements were performed twice for each sample. Release of the analytes in control and experimental samples was compared with an unpaired two-sample t-test using GraphPad Prism v.8.0.1 (GraphPad Software, Inc., San Diego, CA, USA). The p values ≤ 0.05 were considered significant.

Psd1: pea defensin from Pisum sativum (UNIPROT P81929), recombinant peptide overexpressed in Escherichia coli (KTCEHLADTYRGVCFTNASCDDHCKNKAHLISGTCHNWKCFCTQNC; UniProt P81929 1-46, looked up)
EGF level (Mono+Psd1, 2 µM, supernatant): 8.15 pg/mL | Eotaxin level (Mono+Psd1, 2 µM, supernatant): <3.52↓ pg/ml | FGF-2 level (Mono+Psd1, 2 µM, supernatant): 41.38 pg/mL | FLT-3L level (Mono+Psd1, 2 µM, supernatant): 0.65 pg/mL | Fractalkine level (Mono+Psd1, 2 µM, supernatant): <17.82↓ pg/ml | G-CSF level (Mono+Psd1, 2 µM, supernatant): 52.17 pg/mL | GM-CSF level (Mono+Psd1, 2 µM, supernatant): 12.61 pg/mL | GROa level (Mono+Psd1, 2 µM, supernatant): 1254 pg/mL | IFNa2 level (Mono+Psd1, 2 µM, supernatant): 12.78 pg/mL | IFNg level (Mono+Psd1, 2 µM, supernatant): <2.23↓ pg/ml | IL-1RA level (Mono+Psd1, 2 µM, supernatant): 4.01 pg/mL | IL-1a level (Mono+Psd1, 2 µM, supernatant): 14.17 pg/mL | IL-1b level (Mono+Psd1, 2 µM, supernatant): <2.26↓ pg/ml | IL-2 level (Mono+Psd1, 2 µM, supernatant): 1.12 pg/mL | IL-3 level (Mono+Psd1, 2 µM, supernatant): <0.60↓ pg/ml | IL-4 level (Mono+Psd1, 2 µM, supernatant): <1.14↓ pg/ml | IL-5 level (Mono+Psd1, 2 µM, supernatant): <0.30↓ pg/ml | IL-6 level (Mono+Psd1, 2 µM, supernatant): 478.09 pg/mL | IL-7 level (Mono+Psd1, 2 µM, supernatant): <0.38↓ pg/ml | IL-8 level (Mono+Psd1, 2 µM, supernatant): 6178 pg/mL | IL-9 level (Mono+Psd1, 2 µM, supernatant): 3.19 pg/mL | IL-10 level (Mono+Psd1, 2 µM, supernatant): 22.94 pg/mL | IL-12 (p40) level (Mono+Psd1, 2 µM, supernatant): 19.24 pg/mL | IL-12 (p70) level (Mono+Psd1, 2 µM, supernatant): <1.68↓ pg/ml | IL-13 level (Mono+Psd1, 2 µM, supernatant): 11.06 pg/mL | IL-15 level (Mono+Psd1, 2 µM, supernatant): 1.44 pg/mL | IL-17A level (Mono+Psd1, 2 µM, supernatant): 3.18 pg/mL | IL-17E/IL-25 level (Mono+Psd1, 2 µM, supernatant): <18.85↓ pg/ml | IL-17F level (Mono+Psd1, 2 µM, supernatant): <19.03↓ pg/ml | IL-18 level (Mono+Psd1, 2 µM, supernatant): 0.8 pg/mL | IL-22 level (Mono+Psd1, 2 µM, supernatant): 10.35 pg/mL | IL-27 level (Mono+Psd1, 2 µM, supernatant): 59.83 pg/mL | IP-10 level (Mono+Psd1, 2 µM, supernatant): 165.32 pg/mL | M-GSF level (Mono+Psd1, 2 µM, supernatant): 29.48 pg/mL | MCP-1 level (Mono+Psd1, 2 µM, supernatant): 6617 pg/mL | MCP-3 level (Mono+Psd1, 2 µM, supernatant): 371.63 pg/mL | MDC level (Mono+Psd1, 2 µM, supernatant): 864.86 pg/mL | MIG level (Mono+Psd1, 2 µM, supernatant): 1166 pg/mL | MIP-1a level (Mono+Psd1, 2 µM, supernatant): 118.6 pg/mL | MIP-1b level (Mono+Psd1, 2 µM, supernatant): 254.87 pg/mL | PDGF-AA level (Mono+Psd1, 2 µM, supernatant): 26.77 pg/mL | PDGF-AB/BB level (Mono+Psd1, 2 µM, supernatant): 543.88 pg/mL | RANTES level (Mono+Psd1, 2 µM, supernatant): 59.35 pg/mL | TGF-a level (Mono+Psd1, 2 µM, supernatant): 2.23 pg/mL | TNFa level (Mono+Psd1, 2 µM, supernatant): 90.69 pg/mL | TNFb level (Mono+Psd1, 2 µM, supernatant): 2.7 pg/mL | VEGFa level (Mono+Psd1, 2 µM, supernatant): 4.16 pg/mL | sCD40L level (Mono+Psd1, 2 µM, supernatant): 98.67 pg/mL | increase in IL-12, IL-15, IL-27 and MCP-1 (monocytes, 2 μM): failed to reach statistical significance | production of TNFα, IL-6, IL-8, IP-10, MCP-3, and G-CSF (monocytes, 2 μM): increased
